Test results taken from publication PMC11317875 (Chemical Science, 2024).
Read-outs that look alike come from different tables or passages of the source.

What was measured:
LpqY [1] = target: T1, LpqY (Mycolicibacterium thermoresistibile, UniProt G7CES0); set-up: His-SUMO (N, cleaved yes); made in house; host or cells: E. coli BL21 (DE3); details: LpqY-azide-trehalose binding; cited from earlier work
[2] = system: Mycobacterium tuberculosis; assay: Ion chromatography of hydrolysed lipid extracts of F-Tre labelled Mtb; assay type: cell-based
LpqY [3] = target: T1, LpqY; assay: Microscale thermophoresis (MST) binding to LpqY; details: for fold weaker binding to LpqY: compared with 3F-Tre, 6F-Tre and unmodified trehalose
Experimental: Microscale Thermophoresis
Mtr LpqY (2.6 μM) was labelled with the amine reactive RED-NHS dye (3 μM) (second generation,
NanoTemper Technologies). Following incubation in the dark for 30 min with shaking (300 rpm, room
temperature), excess dye was removed using a Zeba desalting spin column (7KMWCO).
analogues were prepared in PBS containing 0.05% Tween 20, and the final concentration of the protein in the
assay was 500 nM. The samples were loaded into the MonoLith NT.115 standard treated capillaries and
incubated for 10 min before analysis using the Monolith NT.115 instrument (NanoTemper Technologies) at

[4] = system: Wild-type Mycobacterium bovis BCG; assay type: cell-based; details: 100 μM probe
Mtb = assay type: cell-based, Mycobacterium tuberculosis; details: for new spots in the lipid extracts (TLC) / additional band in the TDM region (TLC) / additional lower polarity bands than TMM (TLC): 100 μM probe; for additional band in the TDM region (TLC) / additional lower polarity bands than TMM (TLC): Fig. 8 shows Mtb and M. bovis BCG
[5] = system: Mycobacterium tuberculosis; assay: F-Tre uptake at a single time point, HPAEC-PAD of cytosolic extracts; assay type: cell-based; details: for uptake / accumulation in Mtb cells: 0-200 μM probe, ion chromatography of cytosolic extracts; for Peak area of F-Tre peak: HPAEC trace
M. bovis BCG = assay type: cell-based, Mycobacterium bovis BCG; details: for new spots in the lipid extracts (TLC): 100 μM probe
[6] = system: Mycobacterium tuberculosis; assay: Time dependent F-Tre uptake, HPAEC-PAD of cytosolic extracts; assay type: cell-based; details: for accumulation rate: 100 μM probe, cytosolic extracts; for Mtb cytosolic concentration: 100 µM probe; for saturation of uptake: up to the 8 hour timepoint
Experimental: lyophilised, resuspended in 1 mL 18 MΩ H2O and filtered through a 10-kDa molecular weight cut-off centrifuge filter (Amicon) and the filtrate analysed. HPAEC-PAD was performed on a Dionex ICS5000+ system with a CarboPac PA-20 analytical column (3 mm x 150 mm) and PA-20 guard column (3 mm x 30 mm) kept at 20 °C. Pulsed amperometry with standard quadrupole waveform was used for detection. The system was equipped with an autosampler that was set up to inject 10 μL sample volumes. Multistep gradient […]
Chromeleon 7 software (Dionex) was used for data processing.
Table S11: High performance anion exchange chromatography KOH elution gradient for F-Tre analysis Time (min) KOH conc. (mM) Flow rate (mL/min)
To quantify uptake, the peak area of 2F-Tre, 3F-Tre and 6F-Tre standards at varying concentrations were measured (Chromeleon 7 software). The peak area was plotted against concentration and simple linear regression was plotted. To determine the concentration of F-Tre analogues in cytosolic samples the area of the peaks of interest was measured (Chromeleon 7 software) and the concentration determined from the calibration […]
Time dependent F-Tre uptake
M. tuberculosis was grown to an OD600 of 0.8, then 2F-Tre, 3F-Tre, 4F-Tre or 6F-Tre were added to a final concentration of 100 µM. Controls with the equivalent volume of water or equivalent concentration of trehalose were also prepared. 5 mL aliquots were taken at T=0, 0.5, 1, 1.5, 2, 3, 4, 6, 8 h and the cells were harvested by centrifugation (2,916 x g, 5 min, 22 ° C) and washed (5 mL PBST) three times. The pellets were then resuspended in 1 mL H2O and lysed by mechanical disruption using 0.1 mm zirconia/silica beads (BioSpec Products) on a FastPrep (MP Biomedicals) ribolyser (4 x 45 s cycles with 90 s on ice in between).
Samples were then centrifuged (16,200 x g, 10 min, 22 °C) and the supernatant collected, lyophilised, resuspended in 1 mL 18 MΩ H2O and filtered through a 10-kDa molecular weight cut-off centrifuge filter (Amicon). The filtrate was analysed by HPAEC-PAD and quantified as described above.

T1 sequence (G7CES0 29-471): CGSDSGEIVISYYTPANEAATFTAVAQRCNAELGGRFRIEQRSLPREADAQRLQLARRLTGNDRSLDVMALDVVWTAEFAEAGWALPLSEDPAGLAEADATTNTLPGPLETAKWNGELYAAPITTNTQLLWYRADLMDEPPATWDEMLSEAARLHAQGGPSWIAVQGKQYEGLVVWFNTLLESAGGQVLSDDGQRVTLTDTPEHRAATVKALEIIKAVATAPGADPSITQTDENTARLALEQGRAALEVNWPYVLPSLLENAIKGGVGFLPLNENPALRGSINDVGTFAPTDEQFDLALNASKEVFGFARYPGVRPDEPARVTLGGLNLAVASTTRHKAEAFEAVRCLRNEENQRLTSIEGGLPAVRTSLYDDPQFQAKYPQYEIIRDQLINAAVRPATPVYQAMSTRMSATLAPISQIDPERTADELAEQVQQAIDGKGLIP

SMILES | Kd (LpqY [1]) [µM] | Kd (LpqY [3]) [µM] | accumulation in cytosolic extracts [4] | new spots in the lipid extracts (TLC) (Mtb) | additional band in the TDM region (TLC) (Mtb) | additional lower polarity bands than TMM (TLC) (Mtb) | uptake / accumulation in Mtb cells [5] | Peak area of F-Tre peak ([5]; Mtb + 25 µM F-Tre) [nC*min] | Peak area of F-Tre peak ([5]; Mtb + 50 µM F-Tre) [nC*min] | Peak area of F-Tre peak ([5]; Mtb + 100 µM F-Tre) [nC*min] | Peak area of F-Tre peak ([5]; Mtb + 200 µM F-Tre) [nC*min] | new spots in the lipid extracts (TLC) (M. bovis BCG) | Mtb cytosolic concentration ([6]; Time 0 h) [µM] | Mtb cytosolic concentration ([6]; Time 0.5 h) [µM] | Mtb cytosolic concentration ([6]; Time 1 h) [µM] | Mtb cytosolic concentration ([6]; Time 1.5 h) [µM] | Mtb cytosolic concentration ([6]; Time 2 h) [µM] | Mtb cytosolic concentration ([6]; Time 4 h) [µM] | Mtb cytosolic concentration ([6]; Time 6 h) [µM] | Mtb cytosolic concentration ([6]; Time 8 h) [µM] | further results
[N-]=[N+]=N[C@H]1[C@@H](O[C@H]2O[C@H](CO)[C@@H](O)[C@H](O)[C@H]2O)O[C@H](CO)[C@@H](O)[C@@H]1O [2Az-Tre, 2-Deoxy-2-azido-trehalose] | 1916 ± 7.7 | – | – | – | – | – | – | – | – | – | – | – | – | – | – | – | – | – | – | – | –
OC[C@H]1O[C@H](O[C@H]2O[C@H](CO)[C@@H](O)[C@H](O)[C@H]2F)[C@H](O)[C@@H](O)[C@@H]1O [2F-Tre, 2-deoxy-2-fluoro-trehalose] | – | 770 ± 23.2 | accumulate | new spots | one additional lower polarity TDM band | Two additional lower polarity bands than TMM | significant dose-dependent increase in the accumulation | 0.096 | 0.206 | 0.362 | 1.328 | new spots | 0 ± 0 | 636 ± 33 | 838 ± 52 | 1144 ± 250 | 1717 ± 151 | 2917 ± 105 | 4597 ± 236 | 6639 ± 337 | detection in hydrolysed lipid extracts ([2]; 100 µM probe, HPAEC-PAD): detected; Peak area of F-Tre peak in hydrolysed lipid extracts ([2]; Mtb + F-Tre (100 µM)): 0.662 nC*min; fold weaker binding to LpqY (LpqY [3]): ~8 fold; accumulation rate [6]: 0.80 µM/h; saturation of uptake [6]: no saturation of uptake
[N-]=[N+]=N[C@@H]1[C@@H](O)[C@@H](O[C@H]2O[C@H](CO)[C@@H](O)[C@H](O)[C@H]2O)O[C@H](CO)[C@H]1O [3Az-Tre, 3-Deoxy-3-azido-trehalose] | 475 ± 17.2 | – | – | – | – | – | – | – | – | – | – | – | – | – | – | – | – | – | – | – | –
OC[C@H]1O[C@H](O[C@H]2O[C@H](CO)[C@@H](O)[C@H](F)[C@H]2O)[C@H](O)[C@@H](O)[C@@H]1O [3F-Tre, 3-deoxy-3-fluoro-trehalose] | – | 111 ± 7.1 | accumulate | new spots | one additional lower polarity TDM band | Two additional lower polarity bands than TMM | significant dose-dependent increase in the accumulation | 1.869 | 3.093 | 6.779 | 12.530 | new spots | 0 ± 0 | 250 ± 102 | 423 ± 256 | 1030 ± 335 | 1628 ± 25 | 3016 ± 102 | 5872 ± 297 | 7892 ± 72 | accumulation rate [6]: 0.94 µM/h; increased accumulation compared to 2F- and 6F-Tre ([6]; at 8 hours): ~20%; saturation of uptake [6]: no saturation of uptake
[N-]=[N+]=N[C@H]1[C@H](O)[C@@H](O)[C@@H](O[C@H]2O[C@H](CO)[C@@H](O)[C@H](O)[C@H]2O)O[C@@H]1CO [4Az-Tre, 4-Deoxy-4-azido-trehalose] | 247 ± 7.1 | – | – | – | – | – | – | – | – | – | – | – | – | – | – | – | – | – | – | – | –
OC[C@H]1O[C@H](O[C@H]2O[C@H](CO)[C@@H](F)[C@H](O)[C@H]2O)[C@H](O)[C@@H](O)[C@@H]1O [4F-Tre] | – | 1480 ± 75.6 | not | No new spots | – | – | No uptake | – | – | – | – | No new spots | 0 | 0 | 0 | 0 | 0 | 0 | 0 | 0 | affinity range (LpqY [3]; MST): millimolar range; fold weaker binding to LpqY (LpqY [3]): ~16 fold; presence in trehalose glycolipids (Mtb): not found in any trehalose glycolipid; presence in trehalose glycolipids (M. bovis BCG): not found in any trehalose glycolipid
[N-]=[N+]=NC[C@H]1O[C@H](O[C@H]2O[C@H](CO)[C@@H](O)[C@H](O)[C@H]2O)[C@H](O)[C@@H](O)[C@@H]1O [6Az-Tre, 6-Deoxy-6-azido-trehalose] | 443 ± 5.3 | – | – | – | – | – | – | – | – | – | – | – | – | – | – | – | – | – | – | – | –
OC[C@H]1O[C@H](O[C@H]2O[C@H](CF)[C@@H](O)[C@H](O)[C@H]2O)[C@H](O)[C@@H](O)[C@@H]1O [6F-Tre, 6-deoxy-6-fluoro-trehalose] | – | 90.3 ± 0.9 | accumulate | new spots | no additional band in the TDM region | one | significant dose-dependent increase in the accumulation | 0.144 | 0.506 | 0.866 | 1.604 | new spots | 0 ± 0 | 342 ± 16 | 797 ± 224 | 1392 ± 83 | 1804 ± 111 | 2945 ± 234 | 4694 ± 237 | 6843 ± 43 | accumulation rate [6]: 0.82 µM/h; saturation of uptake [6]: no saturation of uptake
